Measurements published in US20030032809A1, “Optimized procedures for the manufacture of paroxetine salts” (priority 2001, published 2003).

Columns and labels:
[1] = Solubility of paroxetine salts in water; assay type: physicochemical
[2] = prior-art statement; cited from earlier work

Substance: (−)-trans-4R-(4′-fluorophenyl)-3S-[(3′,4′-methylenedioxyphenyl)oxymethyl]piperidine acetate [paroxetine acetate]
- solubility ([1]; purified water, room temperature, purified paroxetine acetate): at least 1000 mg per one ml
- solubility in water (in words) ([1]; water): highly soluble in water
- water solubility (in words, background) [2]: excellent water solubility profile
